Target: Autotaxin (Homo sapiens) (UniProt Q13822)
Details: MDA-MB-435, at 10 µM
Description: Inhibition of human autotaxin expressed in MDA-MB-435 cells assessed as fluorescent lysophosphatidyl choline analog hydrolysis at 10 uM
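Further: activity read as cleavage of a fluorescent lysophosphatidylcholine analog by autotaxin expressed in the cells.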

Row | inhibition [%] | Compound
1 | 87 | CCCCOC(=O)c1ccccc1N1C(=O)c2ccc(C(=O)c3ccc4c(c3)C(=O)N(c3ccccc3C(=O)OCCCC)C4=O)cc2C1=O
2 | 59 | CC(=O)Nc1ccc(N2C(=O)c3ccc(C(=O)c4ccc5c(c4)C(=O)N(c4ccc(NC(C)=O)cc4)C5=O)cc3C2=O)cc1
3 | 31 | O=C(O)c1ccc(Oc2ccc(C(=O)c3ccc4c(c3)C(=O)N(c3cccc5ccccc35)C4=O)cc2)cc1
4 | 71 | O=C(O)c1ccc2c(c1)C(=O)N(c1cccc(-c3nc4ccccc4c(=O)o3)c1)C2=O
5 | 83 | Cc1ccc(C(=O)O)cc1N1C(=O)c2ccc(C(=O)c3ccc4c(c3)C(=O)N(c3cc(C(=O)O)ccc3C)C4=O)cc2C1=O
6 | 58 | COc1ccc(N2C(=O)c3ccc(C(=O)Nc4cccc(C(=O)O)c4)cc3C2=O)cc1
7 | 91 | Cc1ccnc(N2C(=O)c3ccc(C(=O)c4ccc5c(c4)C(=O)N(c4cc(C)ccn4)C5=O)cc3C2=O)c1
8 | 46 | O=C(O)c1ccc(CN2C(=O)c3ccc(C(=O)c4ccc5c(c4)C(=O)N(Cc4ccc(C(=O)O)cc4)C5=O)cc3C2=O)cc1
9 | 80 | CC(=O)Oc1cccc(N2C(=O)c3ccc(C(=O)c4ccc5c(c4)C(=O)N(c4cccc(OC(C)=O)c4)C5=O)cc3C2=O)c1
10 | 91 | O=C(O)c1cn(C2CC2)c2cc(N3CCN(C(=S)Nc4ccc5c(c4)OCCO5)CC3)c(F)cc2c1=O
11 | 90 | O=C(/C=C/c1cccc(N2C(=O)c3ccc(C(=O)c4cccc([N+](=O)[O-])c4)cc3C2=O)c1)c1ccccc1
12 | 85 | Cc1cc(=O)oc2cc(OCC(=O)NC(CC(=O)O)C(=O)O)ccc12 (stereo not given)
13 | 62 | O=C(O)c1ccc(Oc2ccc(C(=O)c3ccc4c(c3)C(=O)N(c3ccc(O)cc3)C4=O)cc2)cc1
14 | 85 | O=S(=O)(O)c1cc(O)c2c(/N=N/c3c(S(=O)(=O)O)cc4cc(S(=O)(=O)O)cc(O)c4c3O)cc(S(=O)(=O)O)cc2c1
15 | 74 | O=C(Cc1ccccc1)Nc1cccc(N2C(=O)c3ccc(C(=O)O)cc3C2=O)c1
16 | 49 | O=C(O)c1cc(C(=O)O)cc(N2C(=O)c3ccc(C(=O)c4ccc5c(c4)C(=O)N(c4cc(C(=O)O)cc(C(=O)O)c4)C5=O)cc3C2=O)c1
17 | 93 | Cc1ccc(/N=N/c2cc(C)ccc2NC(=O)c2ccc(Oc3ccc(C(=O)Nc4ccc(C)cc4/N=N/c4ccc(C)cc4)cc3)cc2)cc1
18 | 58 | CCCCCCCOC(=O)c1ccc(N2C(=O)c3ccc(C(=O)c4ccc5c(c4)C(=O)N(c4ccc(C(=O)OCCCCCCC)cc4)C5=O)cc3C2=O)cc1
19 | 58 | CC(=O)OCCCN1C(=O)c2ccc(C(=O)c3ccc4c(c3)C(=O)N(CCCOC(C)=O)C4=O)cc2C1=O
20 | 74 | O=C(Cc1ccccc1)Nc1cc(N2C(=O)c3ccc(C(=O)O)cc3C2=O)ccc1Cl
21 | 88 | O=C(/C=C/c1cccs1)NC(=S)N1CCCCCC1
22 | 87 | O=C(O)c1ccc2c(c1)C(=O)N(c1ccc(-c3nnc(-c4ccccc4)o3)cc1)C2=O
23 | 67 | O=C(Nc1ccc(O)c(C(=O)O)c1)c1ccc2c(c1)C(=O)N(CC1CCCO1)C2=O (stereo not given)
24 | 91 | O=C(NC1c2ccccc2Oc2ccccc21)c1ccc(C(=O)NC2c3ccccc3Oc3ccccc32)cc1

Row | inhibition [%] | Compound
25 | 88 | CCn1cc(C(=O)O)c(=O)c2cnc(N3CCN(C(=S)Nc4cc5oc6ccccc6c5cc4OC)CC3)nc21
26 | 45 | O=C(O)c1cccc(NC(=O)c2ccc3c(c2)C(=O)N(c2ccc(/N=N/c4ccccc4)cc2)C3=O)c1
27 | 31 | O=C(NN1C(=O)c2ccc(C(=O)c3ccc4c(c3)C(=O)N(NC(=O)c3ccncc3)C4=O)cc2C1=O)c1ccncc1
28 | 71 | O=C(O)c1cc(NC(=O)c2ccc3c(c2)C(=O)N(CC2CCCO2)C3=O)cc(C(=O)O)c1 (stereo not given)
29 | 48 | O=C(O)c1ccc2c(c1)C(=O)N(c1cccc(C(=O)Nc3cccc(Cl)c3)c1)C2=O
30 | 90 | O=C(O)c1ccc(Oc2ccc(C(=O)c3ccc4c(c3)C(=O)N(c3ccc([N+](=O)[O-])cc3)C4=O)cc2)cc1
31 | 83 | CCn1cc(C(=O)O)c(=O)c2cc(F)c(N3CCN(C(=S)NC4CC5CCC4C5)CC3)cc21 (stereo not given)
32 | 86 | O=C(O)c1cc(NC(=O)c2ccc3c(c2)C(=O)N(Cc2cccnc2)C3=O)cc(C(=O)O)c1
33 | 71 | O=C(O)c1cccc(NC(=O)c2ccc3c(c2)C(=O)N(c2nccs2)C3=O)c1
34 | 71 | O=C(O)c1ccc2c(c1)C(=O)N(c1ccc(C(=O)OCC(=O)c3ccccc3)cc1)C2=O
35 | 89 | CCS(=O)(=O)N1N=C(c2ccc(NS(C)(=O)=O)cc2)CC1c1ccc(OC)cc1 (stereo not given)
36 | 70 | Cc1ccc(N2C(=O)c3ccc(C(=O)c4ccc5c(c4)C(=O)N(c4ccc(C)cc4C(=O)O)C5=O)cc3C2=O)c(C(=O)O)c1
37 | 88 | Cc1c(NS(=O)(=O)CC23CCC(CC2=O)C3(C)C)c(=O)n(-c2ccccc2)n1C (stereo not given)
38 | 55 | O=C(O)c1cccc(NC(=O)c2ccc3c(c2)C(=O)N(C2CCCCC2)C3=O)c1
39 | 79 | Cc1ccccc1NC(=O)c1cccc(N2C(=O)c3ccc(C(=O)O)cc3C2=O)c1
40 | 86 | O=C(O)c1ccc2c(c1)C(=O)N(c1ccc(Cl)c(NC(=O)c3ccc4ccccc4c3O)c1)C2=O
41 | 91 | CC(=O)OCCN1C(=O)c2ccc(C(=O)c3ccc4c(c3)C(=O)N(CCOC(C)=O)C4=O)cc2C1=O
42 | 76 | CC(C)(C)c1ccc(C(=O)NC(=S)N2CCCC2)cc1
43 | 93 | O=C(c1ccc2c(c1)C(=O)N(c1ccc(Br)cc1)C2=O)c1ccc2c(c1)C(=O)N(c1ccc(Br)cc1)C2=O
44 | 82 | O=C(O)c1ccc2c(c1)C(=O)N(c1ccc(/N=N/c3ccccc3)cc1)C2=O
45 | 89 | CCCCN1C(=O)c2ccc(C(=O)Nc3cc(C(=O)O)cc(C(=O)O)c3)cc2C1=O
46 | 70 | O=C(O)c1ccc2c(c1)C(=O)N(c1ccc(Oc3ccc([N+](=O)[O-])cc3)cc1)C2=O
47 | 53 | CC(=O)Oc1ccc(N2C(=O)c3ccc(C(=O)c4ccc5c(c4)C(=O)N(c4ccc(OC(C)=O)cc4C(=O)O)C5=O)cc3C2=O)c(C(=O)O)c1
48 | 0 | CCn1cc(C(=O)O)c(=O)c2cnc(N3CCN(C(=S)Nc4cc(Cl)cc(Cl)c4)CC3)nc21

Row | inhibition [%] | Compound
49 | 21 | CCn1c(SCC(=O)Nc2ccc(C(C)=O)cc2)nc2nc3c(cc2c1=O)CCCC3
50 | 91 | Cc1cc(=O)oc2c(/C=N/c3ccc(/N=N/c4ccccc4)cc3)c(O)ccc12
51 | 71 | O=C(O)c1ccc(Oc2ccc(C(=O)c3ccc4c(c3)C(=O)N(c3ccccc3C(=O)O)C4=O)cc2)cc1
52 | 86 | CCOc1ccccc1N1C(=O)c2ccc(C(=O)c3ccc4c(c3)C(=O)N(c3ccccc3OCC)C4=O)cc2C1=O
53 | 67 | Cc1c(N2C(=O)c3ccc(C(=O)c4ccc5c(c4)C(=O)N(c4c(C)n(C)n(-c6ccccc6)c4=O)C5=O)cc3C2=O)c(=O)n(-c2ccccc2)n1C
54 | 86 | Oc1cccc(/C=N/c2ccc(/N=N/c3ccccc3)cc2)c1O
55 | 59 | O=C(c1ccc2c(c1)C(=O)N(c1cccc3ccccc13)C2=O)c1ccc2c(c1)C(=O)N(c1cccc3ccccc13)C2=O
56 | 78 | CCn1cc(C(=O)O)c(=O)c2cnc(N3CCN(C(=S)NC(=O)c4c(-c5ccccc5)noc4C)CC3)nc21
57 | 56 | O=C(O)c1cccc(NC(=O)c2ccc3c(c2)C(=O)N(Cc2cccnc2)C3=O)c1
58 | 65 | COC(=O)c1ccc(N2C(=O)c3ccc(C(=O)c4ccc5c(c4)C(=O)N(c4ccc(C(=O)OC)cc4)C5=O)cc3C2=O)cc1
59 | 89 | O=C(O)c1ccc2c(c1)C(=O)N(c1cccc(N3C(=O)c4ccc(C(=O)O)cc4C3=O)n1)C2=O
60 | 62 | CCn1cc(C(=O)O)c(=O)c2cnc(N3CCN(C(=S)NC(CC(=O)OC)C(=O)OC)CC3)nc21 (stereo not given)
61 | 81 | Cc1ccc(/N=N/c2cc(C)ccc2NC(=O)c2ccc3c(c2)C(=O)N(N2C(=O)c4ccccc4C2=O)C3=O)cc1
62 | 79 | O=C(O)c1cccc(NC(=O)c2ccc3c(c2)C(=O)N(c2ccccc2)C3=O)c1
63 | 91 | O=C(c1ccc2c(c1)C(=O)N(c1ccccc1-c1ccccc1)C2=O)c1ccc2c(c1)C(=O)N(c1ccccc1-c1ccccc1)C2=O
64 | 87 | Oc1ccc(/N=N/c2ccccc2Br)cc1/C=N/c1ccc(I)cc1
65 | 71 | CC(=O)Nc1ccc(/N=N/c2c(S(=O)(=O)O)cc3cc(NC(=O)Nc4ccc5c(O)c(/N=N/c6ccccc6)c(S(=O)(=O)O)cc5c4)ccc3c2O)cc1
66 | 85 | COCC(=O)N1N=C(c2cccc(NS(C)(=O)=O)c2)CC1c1cccc([N+](=O)[O-])c1 (stereo not given)
67 | 80 | CC(C)C(=O)NC(=S)Nc1ccc(N2CCOCC2)cc1
68 | 67 | O=C(c1ccc2c(c1)C(=O)N(Cc1ccccc1)C2=O)c1ccc2c(c1)C(=O)N(Cc1ccccc1)C2=O
69 | 90 | O=C(c1ccc2c(c1)C(=O)N(N1C(=O)c3ccccc3C1=O)C2=O)c1ccc2c(c1)C(=O)N(N1C(=O)c3ccccc3C1=O)C2=O
70 | 90 | Cc1ccc(NC(=S)NC(=O)C2CCCC2)cc1C
